Test results reported in BindingDB's records for doi:10.1016/j.ejmech.2023.115229 (Sichuan University, 2023).

Biological target: Ribosomal protein S6 kinase alpha-2 (Homo sapiens, UniProt Q15349)
Assay: Inhibition of RSK3 (unknown origin)

Sequence of Ribosomal protein S6 kinase alpha-2 (Q15349 whole entry): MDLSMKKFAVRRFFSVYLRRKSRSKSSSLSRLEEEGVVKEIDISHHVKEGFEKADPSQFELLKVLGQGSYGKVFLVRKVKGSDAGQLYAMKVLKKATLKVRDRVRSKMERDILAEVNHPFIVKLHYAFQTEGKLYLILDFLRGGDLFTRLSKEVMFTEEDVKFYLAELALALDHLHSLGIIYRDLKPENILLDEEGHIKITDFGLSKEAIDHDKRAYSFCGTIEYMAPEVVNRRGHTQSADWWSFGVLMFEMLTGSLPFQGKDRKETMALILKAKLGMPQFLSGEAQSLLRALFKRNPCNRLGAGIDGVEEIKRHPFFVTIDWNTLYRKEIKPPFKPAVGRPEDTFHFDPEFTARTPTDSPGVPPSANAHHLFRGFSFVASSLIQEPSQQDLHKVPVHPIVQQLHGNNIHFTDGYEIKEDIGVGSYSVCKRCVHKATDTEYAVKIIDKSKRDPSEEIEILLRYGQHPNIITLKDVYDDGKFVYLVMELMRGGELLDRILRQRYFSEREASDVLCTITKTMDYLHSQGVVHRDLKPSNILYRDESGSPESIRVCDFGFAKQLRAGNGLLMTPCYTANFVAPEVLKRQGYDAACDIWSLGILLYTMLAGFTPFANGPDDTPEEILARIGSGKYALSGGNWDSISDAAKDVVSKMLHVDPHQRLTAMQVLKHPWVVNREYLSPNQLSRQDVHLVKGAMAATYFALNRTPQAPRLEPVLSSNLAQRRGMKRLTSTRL

IC50: 891 nM
SMILES: O=c1c(O)c(-c2ccc(O)c(O)c2)oc2cc(O)ccc12 [2-(3,4-dihydroxyphenyl)-3,7-dihydroxy-chromen-4-one]
